Reference: patent publication US9586928B2 (The Scripps Research Institute, priority 2011, dated 2017)

What was measured:
[1] = target: T1, RORα (Homo sapiens, UniProt P35398); test: Competitive radioligand binding assay on RORα; conditions: data not shown
T1 construct: expressed in transfected cells; host or cells: HEK293T
T1 sequence (P35398 272-510 limits assumed): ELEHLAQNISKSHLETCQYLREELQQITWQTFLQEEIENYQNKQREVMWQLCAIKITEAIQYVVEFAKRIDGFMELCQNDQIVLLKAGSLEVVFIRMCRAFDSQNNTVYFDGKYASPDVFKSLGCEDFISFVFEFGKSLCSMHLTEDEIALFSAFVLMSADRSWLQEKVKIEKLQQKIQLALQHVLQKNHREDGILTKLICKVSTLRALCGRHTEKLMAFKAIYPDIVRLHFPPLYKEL
Text: Concurrent with our characterization of SR1001, several other groups identified RORγ-specific inverse agonists. Similar to SR1001, these ligands inhibited TH17 cell development and function. […] Compounds were identified using a screening approach similar to SR1001 and a RORγ-selective inverse agonist. SR1555, was identified (FIG. 1a). Compound SR1555 is shown as compound 3 in Table 1. […] Next we examined the direct binding of SR1555 to RORα and RORγ in competitive radioligand binding assays.

[2] = target: T1, RORα; test: Gal4-RORα LBD / UAS luciferase cotransfection assay; type: cell-based; conditions: Gal4 chimeric cotransfection
[3] = tested on: EL4 cells; test: Il17a gene expression in EL4 cells by quantitative real-time PCR; type: cell-based, murine; conditions: 10 μM, 24 hours
Protocol: […]. Cotransfection assays were performed as previously described in HEK293 cells (Gal4 cotransfection assay or IL-17 luciferase reporter)[8]. HEK293 and the mouse lymphoma EL4 (ATCC) cells were maintained in DMEM supplemented with 10% FBS plus antibiotics (penicillin and streptomycin; Invitrogen).
(§1) RNA extraction and QRT-PCR analysis was performed as previously described.

[4] = target: T2, FXR (Homo sapiens, UniProt Q96RI1); test: Gal4-FXR / UAS luciferase cotransfection assay; type: cell-based; conditions: Gal4 chimeric cotransfection
T2 sequence (Q96RI1 262-486 limits assumed): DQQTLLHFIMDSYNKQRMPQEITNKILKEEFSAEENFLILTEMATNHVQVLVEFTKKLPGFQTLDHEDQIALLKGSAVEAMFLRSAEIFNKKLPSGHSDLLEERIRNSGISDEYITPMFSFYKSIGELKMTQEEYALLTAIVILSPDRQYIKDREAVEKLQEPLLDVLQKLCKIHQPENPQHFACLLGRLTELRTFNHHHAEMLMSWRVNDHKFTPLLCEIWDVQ

[5] = target: T3, LXR (Homo sapiens, UniProt Q13133); test: Gal4-LXRα / UAS luciferase cotransfection assay; type: cell-based; conditions: Gal4 chimeric cotransfection
T3 sequence (Q13133 209-447 limits assumed): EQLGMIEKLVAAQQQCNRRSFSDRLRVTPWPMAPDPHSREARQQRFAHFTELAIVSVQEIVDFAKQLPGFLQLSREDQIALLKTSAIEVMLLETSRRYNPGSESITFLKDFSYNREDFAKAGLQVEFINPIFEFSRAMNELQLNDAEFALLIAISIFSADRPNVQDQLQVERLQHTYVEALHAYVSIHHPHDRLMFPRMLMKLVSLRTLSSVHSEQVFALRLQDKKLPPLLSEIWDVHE
Protocol: The cells were treated with either DMSO or various compounds as indicated four hours after replating. Following additional 20 hour incubation, luciferase levels were assayed by one-step addition of 20 μL BriteLite (Perkin Elmer) and read using an Envision multilabel plate reader (Perkin Elmer).

[6] = target: T4, RORα (Homo sapiens, UniProt P35398); test: IL-17 promoter luciferase reporter with full-length RORα; type: cell-based
T4 sequence (P35398 1-523): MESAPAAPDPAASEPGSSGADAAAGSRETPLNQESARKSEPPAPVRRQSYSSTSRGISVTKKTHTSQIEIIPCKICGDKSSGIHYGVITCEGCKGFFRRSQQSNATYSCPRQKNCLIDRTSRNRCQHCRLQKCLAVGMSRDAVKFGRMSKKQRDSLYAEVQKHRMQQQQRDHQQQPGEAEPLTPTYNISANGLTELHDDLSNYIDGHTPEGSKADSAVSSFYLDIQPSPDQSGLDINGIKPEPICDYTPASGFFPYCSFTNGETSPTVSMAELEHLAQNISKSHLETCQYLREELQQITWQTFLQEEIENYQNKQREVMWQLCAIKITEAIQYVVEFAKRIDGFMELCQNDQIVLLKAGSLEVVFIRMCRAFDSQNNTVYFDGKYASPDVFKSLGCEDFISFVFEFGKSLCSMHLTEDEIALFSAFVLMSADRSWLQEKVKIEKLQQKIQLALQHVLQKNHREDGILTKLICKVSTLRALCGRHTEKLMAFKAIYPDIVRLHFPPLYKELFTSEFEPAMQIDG
Text: Since RORα and RORγ are critical regulators of IL-17 gene expression, we examined whether SR1555 would affect RORα and RORγ-dependent regulation of an IL-17 promoter driven luciferase reporter construct. HEK293 cells were transiently transfected with an IL-17 reporter, either full-length RORα or RORγ, and treated with an increasing concentration of SR1555[8]. In a dose dependent manner, SR1555 suppressed IL-17 promoter driven activity by RORγ but not RORα, further confirming that SR1555 is indeed a RORγ-specific inverse agonist (FIG. 1d). Finally, using EL4 cells, a murine thymoma which endogenously express RORα, RORγ t, and IL-17A, we examined whether SR1555 affected endogenous IL-17 gene expression. EL4 cells were treated with DMSO or SR1555 for 24 hours and analyzed for Il17a gene expression by quantitative real-time PCR.
Cotransfection assays were performed as previously described in HEK293 cells (Gal4 cotransfection assay or IL-17 luciferase reporter)[8]. […]
HEK293 cells were maintained in Dulbecco's modified Eagle's medium (DMEM) supplemented with 10% fetal bovine serum at 37° C. under 5% CO2. […] The luciferase levels were assayed following additional 20 hour incubation by one-step addition of BriteLite Plus (Perkin Elmer) and read using an Envision (Perkin Elmer). […]

[7] = tested on: T regulatory cells; test: T regulatory cell differentiation of splenocytes (RTPCR, Foxp3 FACS); type: cell-based, murine; conditions: 10 μM
Protocol: Therefore, the environmental cues associated with the concentration of TGF[…] dictates the balance between TH17 and T regulatory cell differentiation. In light of the reciprocal relationship between these two cell types, we assessed whether SR1555 affected the development of T regulatory cells in vitro. Splenocytes were cultured under T regulatory cell polarizing conditions (TGFβ and IL-2) for 3 days. […] To determine whether the gene expression data would correlate with protein expression, we again cultured splenocytes for 5 days under T regulatory cell polarizing conditions in the presence of DMSO or SR1555 and examined the expression of Foxp3 by intracellular cytokine FACS analysis.
Splenocytes were differentiated under the following conditions: iTreg-10 μg/mL anti-IFNγ, 10 μg/mL anti-IL-4, and 2 ng/mL TGFβ (R&D Systems); 20 ug/mL anti-IFNγ, 20 ug/mL anti-IL-4, 1 ng/mL TGFβ, and 10 ng/mL IL-6 (R&D Systems) for TH17 conditions. All cultures were stimulated with 1 μg/mL anti-CD3 (eBiosciences) and 1 μg/mL anti-CD28 (eBiosciences). Four to five days after activation, all cells were restimulated with 5 ng/mL phorbol-12-myristate-13-acetate (PMA) (Sigma) and 500 ng/mL ionomycin (Sigma) for 2 hours with the addition of GolgiStop (BD Bioscience) for an additional 2 hours before intracellular staining. Cells were cultured in RPMI 1640 medium (Invitrogen) with 10% FBS and antibiotics.
as §1

[8] = target: T5, RORβ (Homo sapiens, UniProt Q92753); test: Binding of radiolabeled T1317 to RORβ; conditions: radiolabeled compound
T5 sequence (Q92753 1-470): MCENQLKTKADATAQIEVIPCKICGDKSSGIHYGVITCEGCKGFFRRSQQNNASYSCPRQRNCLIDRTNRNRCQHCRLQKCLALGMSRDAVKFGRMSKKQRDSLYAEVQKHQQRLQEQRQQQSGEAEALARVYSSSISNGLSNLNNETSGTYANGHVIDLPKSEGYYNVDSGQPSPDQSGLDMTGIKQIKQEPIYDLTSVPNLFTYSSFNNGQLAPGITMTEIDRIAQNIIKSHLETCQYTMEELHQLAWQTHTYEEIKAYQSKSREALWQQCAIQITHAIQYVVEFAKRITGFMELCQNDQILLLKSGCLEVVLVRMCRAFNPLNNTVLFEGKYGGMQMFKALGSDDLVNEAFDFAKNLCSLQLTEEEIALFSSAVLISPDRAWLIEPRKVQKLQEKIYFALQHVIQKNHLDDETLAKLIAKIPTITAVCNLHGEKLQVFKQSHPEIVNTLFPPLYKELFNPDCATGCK

[9] = T regulatory polarizing conditions, 3 days

| Compound | displacement of [3H]T0901317 from RORα [1] | effect on transcriptional activity of RORα [2] | inhibition of Il17a gene expression [3] | effect on transcriptional activity of FXR [4] | effect on LXR activity [5] | IL-17 promoter driven activity by RORα [6] | expression of Foxp3+ T cells ([7]; 5 days, FACS) | gene expression of Foxp3 [7, 9] | gene expression of Rorγt [7, 9] | binding to RORβ [8] |
| --- | --- | --- | --- | --- | --- | --- | --- | --- | --- | --- |
| CC(=O)N1CCN(Cc2ccc(-c3ccc(C(O)(C(F)(F)F)C(F)(F)F)cc3)cc2)CC1 [SR1555] | not RORα | devoid of LXR, FXR, and RORα activity | greater than 70% | devoid of LXR, FXR, and RORα activity | devoid of LXR, FXR, and RORα activity | not RORα | almost two-fold increase | effectively increased the gene expression of Foxp3 | suppressing the gene expression of Rorγt | – |
| O=S(=O)(c1ccccc1)N(CC(F)(F)F)c1ccc(C(O)(C(F)(F)F)C(F)(F)F)cc1 [Compound T1317] | – | – | – | – | – | – | – | – | – | does in fact bind to RORβ |
